Earlier results on 18 substances are cited in paper PMC9697394, “Recent Synthesis, Characterization, and Pharmacological Evaluation of Multifunctional Hemorphins Containing Non-Natural Amino Acids with Potential Biological Importance” (Pharmaceuticals, 2022).

As usually defined, the IC50 is the midpoint of a concentration-inhibition curve.

The conditions of data set [1]: for isoelectric point (pI): Figure 6; for charge at pH 7.4 (in words): based on pKa constants and isoelectric points. From the text:
The structure–activity relationship of a series of new analogs of the shortest of all hemorphins, hemorphin-4, was elucidated by Todorov et al. (compounds P4-1, P4-2, P4-3, P4-4, and P4-5). Modifications have been made by replacing Pro at position 2 with the unnatural and conformationally restricted amino acids Ac5c and Ac6c, as well as introducing the adamantane residue from the N-terminus of the hemorphin-4 molecule that would lead to multiple target systems. […] It is known that some identical amino acid residues can have different reactivity with respect to given chemical reagents. For example, in an enzyme molecule, only one or a small number of side chains of amino acid residues located in the “active” center can bind substrates or coenzymes, while others with the same chemical composition cannot. As is known, a large part of the hydro ...

The subject of data set [2] is mice. As to conditions: rotarod, Table 2 (MES), unit inferred. A general note: The rotarod test checks motor coordination on a turning rod.
The conditions of data set [3]: by potentiometric titration. The text has this: Table 6 Parameters of the voltammetric measurements and the electrochemical data of peptides. | column: pKa1; pKa2 Constants
Data set [4] has as its system mice. The following applies: 6 Hz test in mice, TPE 10 min. From the text: Modifications have been made by replacing Pro at position 2 with the unnatural and conformationally restricted amino acids Ac5c and Ac6c, as well as introducing the adamantane residue from the N-terminus of the hemorphin-4 molecule that would lead to multiple target systems.
Data set [5] concerns mice. As to conditions: MES test in mice, TPE 10 min.
The subject of data set [6] is rat. As to conditions: rat blood pressure assay. The text has this: Table 5 Bioactive hemorphin peptides. | column: Concentration/Dose; Effect
For data set [7] the following is noted: at the spinal level; 27.2 nmol i.t. From the text:
(§1) Table 5 Bioactive hemorphin peptides. | column: Effect

Data set [8] relates to WK rats and SHRs. The following applies: radiotelemetry in WK rats and SHRs; 100 µg/kg.
Text: as §1

Data set [9] relates to rat. The following applies: Barnes circular maze in rat; 100 pmol.
Text: as §1

Data set [10] concerns rat locus coeruleus neurons. As to conditions: in vitro LC neurons; read-out: IC50, inhibition of the spontaneous firing. From the text:
(§2) Table 5 Bioactive hemorphin peptides. | column: Concentration/Dose

Data set [11] relates to L929 and K562 tumor cells. The following applies: 10^−7–10^−13 M concentration range.
Text: as §1

Data set [12] concerns cerebellar Purkinje cells. The following applies: in vitro cerebellar Purkinje cells.
Text: as §1

Data set [13] relates to mice; rat. The following applies: hot plate, tail flick test in mice; Randall–Selitto test in rat.
Text: as §1

In data set [14] the test system is tumor (L929 and A549) cell cultures. The following applies: 0.5 µM epirubicin added 24 h prior to 1 µM valorphin; 1 µM valorphin added 48 h prior to 0.1 µM epirubicin.
Text: as §1

Data set [15] concerns the target rat mu-opioid receptor. As to conditions: merged cell of Table 5; read-out: IC50, binds to rat mu-opioid receptor.
Text: as §2

For data set [16], the system named is guinea pig ileum muscle preparation. The following applies: merged cell of Table 5, read-out: IC50, inhibition of the electrically induced contractions.
Text: as §2

In data set [17] the test system is mice. As to conditions: ivPTZ seizure test in mice; TPE 10 min; rank order, hemorphin-7 analogs containing unnatural amino acids. The text has this: Moreover, this peptide analog had the lowest ...
[18] abbreviates: TPE 10 min, hemorphin-4 analogs.
Where [19] appears, read: LVV- and VV-hemorphin-7 analogs.

Where two headings read alike, the source gives them in different places. Where no end group is shown, it is not given here. [ ]: non-standard residue; d: D form. Ac6c = NC1(C(=O)O)CCCCC1; Orn = NCCC[C@H](N)C(=O)O; Dap = NC[C@H](N)C(=O)O; Aib = CC(C)(N)C(=O)O; Sar = CNCC(=O)O

As to Aaa-Tyr-Ac5c-Trp-Thr-NH2 [P4-4], in data set [1], the “isoelectric point (pI)” value is “about 7” and the “charge at pH 7.4 (in words)” value was “positively charged”. For the same substance, in data set [2] (setting [18]), the TD50 (median minimal neurotoxic dose) is more than 10 mg/kg. Besides, in data set [3], the pKa1 was 6.16 and the pKa2 is on record as 8.90. Besides, in [4] (hemorphin-4 analogs), the “ED50 (median effective dose)” value is 0.44 µg. Also, the “ED50 (median effective dose)” value in data set [5] (hemorphin-4 analogs) is on record as 2.33 µg.
Take Aaa-Tyr-Ac6c-Trp-Thr-NH2 [P4-5]: in [1], the “isoelectric point (pI)” value was “about 7” and the “charge at pH 7.4 (in words)” value was “positively charged”. For the same substance, in data set [2] (setting [18]), the TD50 (median minimal neurotoxic dose) was more than 10 mg/kg. Also, in [3], the pKa1 is listed as 6.20 and the pKa2 is listed as 9.06. The “ED50 (median effective dose)” value in data set [4] (hemorphin-4 analogs) is recorded as 0.64 µg. Besides, the “ED50 (median effective dose)” value in [5] (hemorphin-4 analogs) is 0.41 µg.
Regarding IVYPWTQR[dF]-NH2 [H7-2], in [2] (setting [19]), the TD50 (median minimal neurotoxic dose) was more than 8 mg/kg. Moreover, in [3], the pKa1 is 3.09 and the pKa2 is 6.62. Besides, the “ED50 (median effective dose)” value in data set [4] (setting [19]) is 2.6 µg. Besides, the “ED50 (median effective dose)” value in data set [5] (setting [19]) is 0.94 µg.
Turning to “Leu-Val-Val-Tyr-Pro-Trp-Thr-Gln-Arg-Phe [LVV-hemorphin-7]”, the “cardiovascular activity (in words)” value in [6] was “pressor and tachycardic activities mediated by the SNS”. For the same substance, in data set [6] (pressor activity), the ED25 is 128.0 nmol/kg. Also, in [7], the “effect on carrageenan-induced hyperalgesia (in words)” value is given as “decrease”. Further, the “effect on blood pressure (in words)” value in data set [8] is given as “Reduce blood pressure”. The “effect on spatial learning (in words)” value in data set [9] is “enhanced spatial learning”.
Regarding Tyr-D-Arg-Phe-Lys-NH2 [DALDA], the IC50 in [10] is 20 nM.
Take Tyr-Pro-Leu-Gly-NH2 [Tyr-MIF-1]: the half-maximal inhibitory concentration (IC50) in data set [10] is 37500 nM.
On to Tyr-Pro-Phe-Phe-NH2 [endomorphin-2], for which the IC50 in data set [10] was 5.3 nM.
With Tyr-Pro-Phe-Pro-NH2 [morphiceptin], the half-maximal inhibitory concentration (IC50) in data set [10] is 65 nM.
On to Tyr-Pro-Trp-Gly-NH2 [Tyr-W-MIF-I], for which, in data set [10], the half-maximal inhibitory concentration (IC50) was 3800 nM.
Tyr-Pro-Trp-Phe-NH2 [endomorphin-1]: the IC50 in [10] is 8.8 nM.
Turning to Tyr-Pro-Trp-Thr [hemorphin-4], the IC50 in [10] is 6700 nM.
Consider VVYPWTK-NH2 [V5], for which the TD50 (median minimal neurotoxic dose) in data set [2] (VV-hemorphin-5 analogs) was more than 20 mg/kg. In addition, the “pKa constant (one value given)” value in [3] was 8.24, [48, 49]. The “ED50 (median effective dose)” value in data set [4] (VV-hemorphin-5 analogs) is listed as 9.89 µg; in data set [5] (VV-hemorphin-5 analogs) it was 3.19 µg.
With VVYPWTQ [Valorphin], the “effect on tumor cells (in words)” value in data set [11] is given as “Tumor cell cytolysis”. In addition, in [12], the “effect on spontaneous firing (in words)” value is on record as “inhibition of the spontaneous firing”. Further, in [13], the “analgesic effect (in words)” value was “opioid analgesic activity”. Besides, the cell death in data set [14] is given as 100%. Moreover, the concentration for half-maximal inhibition (IC50) in data set [15] was 14 nM; in [16], 10000 nM.
Regarding VVYPWT[Dap]RF-NH2 [VV-H-4], in data set [3], the “pKa (Dap, Dab)” value is given as 5.46; the “pKa (Tyr)” value is listed as 3.14; the “pKa (Val)” value was 7.10. The “Comparison of Activity Related to the Threshold Dose (µg/10 µL) for Clonic Seizures” value in data set [17] is “VV–H7 = V–H4”. Moreover, the “ED50 (median effective dose)” value in [4] (VV-hemorphin-7 analogs containing unnatural amino acids) is given as 3.83 µg.
VVYPWT[Orn]-NH2 [V4]: the TD50 (median minimal neurotoxic dose) in data set [2] (VV-hemorphin-5 analogs) is more than 20 mg/kg. Besides, the “pKa constant (one value given)” value in data set [3] was 7.83, [48, 49]. Besides, the “ED50 (median effective dose)” value in data set [4] (VV-hemorphin-5 analogs) is recorded as 5.09 µg; in data set [5] (VV-hemorphin-5 analogs), 3.63 µg.
In the case of Y[Ac6c]WT-NH2 [P4-2], in data set [2] (setting [18]), the TD50 (median minimal neurotoxic dose) was more than 10 mg/kg. Further, in data set [3], the pKa1 is 3.93 and the pKa2 is listed as 6.71. For the same substance, the “ED50 (median effective dose)” value in [4] (hemorphin-4 analogs) is reported as 2.16 µg. Also, in data set [5] (hemorphin-4 analogs), the “ED50 (median effective dose)” value is given as 2.33 µg.
For Y[dR]F[Sar] [TAPS], the IC50 in [10] is 1.9 nM.
For the substance [Aib]VVYPWTQ-NH2 [V7], in [2] (VV-hemorphin-5 analogs), the TD50 (median minimal neurotoxic dose) was more than 20 mg/kg. In [3], the “pKa constant (one value given)” value was 8.17, [48, 49]. Further, the entries for the “ED50 (median effective dose)” value in data set [4] (VV-hemorphin-5 analogs) and in data set [5] (VV-hemorphin-5 analogs) were 6.61 µg and 16.55 µg, respectively.
